Laboratory results from PubChem BioAssay AID1919008 (Molecular Pharmacology Branch, DTP, NCI, 2023).
pIC50: −log10 of the molar value.

Tested on: DMS-114 complex spheroids with HUVEC/MSC, growth % test/control
Test: Anticancer human tumor DMS-114 cell line growth inhibition [AhR];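 note: spheroids exposed to agents for 7 days before readout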;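 for viability, T/C: 100% = DMSO vehicle control wells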
Settings: for pIC50: curve of first compound; for viability, T/C: stronger effect = lower value
In short: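 Complex tumor spheroids co-cultured with HUVEC and human MSC stroma; AhR antagonists tested in combination with standard-of-care and investigational agents. Top concentration at or near clinical Cmax (else 10 microM), half-log dilutions; growth expressed as percent test/control.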

[1] = second compound 0.1 µM, first compound 0.0316 µM
[2] = second compound 0.1 µM, first compound 0.1 µM
[3] = second compound 0.1 µM, first compound 0.316 µM
[4] = second compound 0.1 µM, first compound 1 µM
[5] = second compound 0.1 µM, first compound 3.16 µM
[6] = second compound 0.1 µM, first compound 10 µM
[7] = second compound 0.316 µM, first compound 0.0316 µM
[8] = second compound 0.316 µM, first compound 0.1 µM
[9] = second compound 0.316 µM, first compound 0.316 µM
[10] = second compound 0.316 µM, first compound 1 µM
[11] = second compound 0.316 µM, first compound 3.16 µM
[12] = second compound 0.316 µM, first compound 10 µM
[13] = second compound 1 µM, first compound 0.0316 µM
[14] = second compound 1 µM, first compound 0.1 µM
[15] = second compound 1 µM, first compound 0.316 µM
[16] = second compound 1 µM, first compound 1 µM
[17] = second compound 1 µM, first compound 3.16 µM
[18] = second compound 1 µM, first compound 10 µM
[19] = second compound 3.16 µM, first compound 0.0316 µM
[20] = second compound 3.16 µM, first compound 0.1 µM
[21] = second compound 3.16 µM, first compound 0.316 µM
[22] = second compound 3.16 µM, first compound 1 µM
[23] = second compound 3.16 µM, first compound 3.16 µM
[24] = second compound 3.16 µM, first compound 10 µM
[25] = second compound 10 µM, first compound 0.0316 µM
[26] = second compound 10 µM, first compound 0.1 µM
[27] = second compound 10 µM, first compound 0.316 µM
[28] = second compound 10 µM, first compound 1 µM
[29] = second compound 10 µM, first compound 3.16 µM
[30] = second compound 10 µM, first compound 10 µM

Compound: CC(C)c1c(-c2ccccc2)nc2c(C#N)c[nH]n2c1=O + CC(CO)NC(=O)c1cc(-c2ccc(Cl)cc2)nn(-c2cnn(C)c2)c1=O
- pIC50 (second compound 0.1 µM): < 5.00
- pIC50 (second compound 0.316 µM): < 5.00
- pIC50 (second compound 1 µM): < 5.00
- pIC50 (second compound 3.16 µM): < 5.00
- pIC50 (second compound 10 µM): < 5.00
- viability, T/C [1]: 93.8%
- viability, T/C [2]: 95.8%
- viability, T/C [3]: 93.8%
- viability, T/C [4]: 95.7%
- viability, T/C [5]: 113%
- viability, T/C [6]: 108%
- viability, T/C [7]: 96.8%
- viability, T/C [8]: 98.5%
- viability, T/C [9]: 101%
- viability, T/C [10]: 98.9%
- viability, T/C [11]: 110%
- viability, T/C [12]: 113%
- viability, T/C [13]: 93.7%
- viability, T/C [14]: 100%
- viability, T/C [15]: 89.6%
- viability, T/C [16]: 97.7%
- viability, T/C [17]: 97.3%
- viability, T/C [18]: 103%
- viability, T/C [19]: 103%
- viability, T/C [20]: 96.6%
- viability, T/C [21]: 95.1%
- viability, T/C [22]: 94.6%
- viability, T/C [23]: 92.3%
- viability, T/C [24]: 105%
- viability, T/C [25]: 103%
- viability, T/C [26]: 105%
- viability, T/C [27]: 96.1%
- viability, T/C [28]: 104%
- viability, T/C [29]: 99.5%
- viability, T/C [30]: 113%

Compound: CC1COCCN1c1cc(-c2ccnn2C)c2ccnc(-c3ccn[nH]3)c2n1 (stereo not given) + CC(CO)NC(=O)c1cc(-c2ccc(Cl)cc2)nn(-c2cnn(C)c2)c1=O
- pIC50 (second compound 0.1 µM): 7.29
- pIC50 (second compound 0.316 µM): 7.19
- pIC50 (second compound 1 µM): 7.47
- pIC50 (second compound 3.16 µM): 7.47
- pIC50 (second compound 10 µM): 7.68
- viability, T/C (second compound 0.1 µM, first compound 0.00316 µM): 90.1%
- viability, T/C (second compound 0.1 µM, first compound 0.01 µM): 82%
- viability, T/C [1]: 59.1%
- viability, T/C [2]: 34.4%
- viability, T/C [3]: 27.9%
- viability, T/C [4]: 15.8%
- viability, T/C (second compound 0.316 µM, first compound 0.00316 µM): 93%
- viability, T/C (second compound 0.316 µM, first compound 0.01 µM): 89.1%
- viability, T/C [7]: 60.1%
- viability, T/C [8]: 42.7%
- viability, T/C [9]: 26.2%
- viability, T/C [10]: 15.2%
- viability, T/C (second compound 1 µM, first compound 0.00316 µM): 85.3%
- viability, T/C (second compound 1 µM, first compound 0.01 µM): 94.4%
- viability, T/C [13]: 51.8%
- viability, T/C [14]: 34.4%
- viability, T/C [15]: 27.6%
- viability, T/C [16]: 14.6%
- viability, T/C (second compound 3.16 µM, first compound 0.00316 µM): 84.8%
- viability, T/C (second compound 3.16 µM, first compound 0.01 µM): 73.7%
- viability, T/C [19]: 49.4%
- viability, T/C [20]: 31.6%
- viability, T/C [21]: 22.3%
- viability, T/C [22]: 13.9%
- viability, T/C (second compound 10 µM, first compound 0.00316 µM): 86.8%
- viability, T/C (second compound 10 µM, first compound 0.01 µM): 63.2%
- viability, T/C [25]: 42.2%
- viability, T/C [26]: 29.6%
- viability, T/C [27]: 24.1%
- viability, T/C [28]: 14.8%

Compound: CC1COCCN1c1cc(C2(S(C)(=N)=O)CC2)nc(-c2ccnc3[nH]ccc23)n1 (stereo not given) + CC(CO)NC(=O)c1cc(-c2ccc(Cl)cc2)nn(-c2cnn(C)c2)c1=O
- pIC50 (second compound 0.1 µM): 5.37
- pIC50 (second compound 0.316 µM): 5.31
- pIC50 (second compound 1 µM): 5.31
- pIC50 (second compound 3.16 µM): 5.67
- pIC50 (second compound 10 µM): 5.75
- viability, T/C [1]: 109%
- viability, T/C [2]: 84.7%
- viability, T/C [3]: 96.7%
- viability, T/C [4]: 84.6%
- viability, T/C [5]: 54.3%
- viability, T/C [6]: 36.1%
- viability, T/C [7]: 94.9%
- viability, T/C [8]: 101%
- viability, T/C [9]: 93.4%
- viability, T/C [10]: 89.5%
- viability, T/C [11]: 62.2%
- viability, T/C [12]: 30.5%
- viability, T/C [13]: 112%
- viability, T/C [14]: 86.6%
- viability, T/C [15]: 85.8%
- viability, T/C [16]: 91.2%
- viability, T/C [17]: 55.6%
- viability, T/C [18]: 33.4%
- viability, T/C [19]: 105%
- viability, T/C [20]: 106%
- viability, T/C [21]: 93.6%
- viability, T/C [22]: 65.4%
- viability, T/C [23]: 43%
- viability, T/C [24]: 27.1%
- viability, T/C [25]: 103%
- viability, T/C [26]: 96.1%
- viability, T/C [27]: 98.9%
- viability, T/C [28]: 61.1%
- viability, T/C [29]: 41.3%
- viability, T/C [30]: 27.7%

Compound: COc1ccc([C@@H](O)c2cc(-c3ncnc4cc(N5CCOCC5)ccc34)c(F)cc2Cl)nn1 + CC(CO)NC(=O)c1cc(-c2ccc(Cl)cc2)nn(-c2cnn(C)c2)c1=O
- pIC50 (second compound 0.1 µM): < 5.00
- pIC50 (second compound 0.316 µM): < 5.00
- pIC50 (second compound 1 µM): < 5.00
- pIC50 (second compound 3.16 µM): < 5.00
- pIC50 (second compound 10 µM): < 5.00
- viability, T/C [1]: 98.8%
- viability, T/C [2]: 100%
- viability, T/C [3]: 100%
- viability, T/C [4]: 105%
- viability, T/C [5]: 108%
- viability, T/C [6]: 61%
- viability, T/C [7]: 98.5%
- viability, T/C [8]: 96.2%
- viability, T/C [9]: 90.4%
- viability, T/C [10]: 94.9%
- viability, T/C [11]: 101%
- viability, T/C [12]: 63.3%
- viability, T/C [13]: 92%
- viability, T/C [14]: 95.5%
- viability, T/C [15]: 96.7%
- viability, T/C [16]: 107%
- viability, T/C [17]: 98.3%
- viability, T/C [18]: 63.8%
- viability, T/C [19]: 108%
- viability, T/C [20]: 99.8%
- viability, T/C [21]: 91.9%
- viability, T/C [22]: 103%
- viability, T/C [23]: 104%
- viability, T/C [24]: 64.2%
- viability, T/C [25]: 104%
- viability, T/C [26]: 97.5%
- viability, T/C [27]: 95.1%
- viability, T/C [28]: 87.5%
- viability, T/C [29]: 81.2%
- viability, T/C [30]: 55.2%

Compound: O=C(C=Cn1cnc(-c2cc(C(F)(F)F)cc(C(F)(F)F)c2)n1)NNc1cnccn1 + CC(CO)NC(=O)c1cc(-c2ccc(Cl)cc2)nn(-c2cnn(C)c2)c1=O
- pIC50 (second compound 0.1 µM): 6.74
- pIC50 (second compound 0.316 µM): 6.81
- pIC50 (second compound 1 µM): 6.77
- pIC50 (second compound 3.16 µM): 6.74
- pIC50 (second compound 10 µM): 6.68
- viability, T/C (second compound 0.1 µM, first compound 0.00949 µM): 103%
- viability, T/C (second compound 0.1 µM, first compound 0.03 µM): 99.2%
- viability, T/C (second compound 0.1 µM, first compound 0.0949 µM): 63.3%
- viability, T/C (second compound 0.1 µM, first compound 0.3 µM): 38.2%
- viability, T/C (second compound 0.1 µM, first compound 0.949 µM): 18.7%
- viability, T/C (second compound 0.1 µM, first compound 3 µM): 7.72%
- viability, T/C (second compound 0.316 µM, first compound 0.00949 µM): 97.8%
- viability, T/C (second compound 0.316 µM, first compound 0.03 µM): 93.9%
- viability, T/C (second compound 0.316 µM, first compound 0.0949 µM): 57.2%
- viability, T/C (second compound 0.316 µM, first compound 0.3 µM): 36.1%
- viability, T/C (second compound 0.316 µM, first compound 0.949 µM): 16.8%
- viability, T/C (second compound 0.316 µM, first compound 3 µM): 7.29%
- viability, T/C (second compound 1 µM, first compound 0.00949 µM): 85.8%
- viability, T/C (second compound 1 µM, first compound 0.03 µM): 97.2%
- viability, T/C (second compound 1 µM, first compound 0.0949 µM): 59.4%
- viability, T/C (second compound 1 µM, first compound 0.3 µM): 37%
- viability, T/C (second compound 1 µM, first compound 0.949 µM): 16.4%
- viability, T/C (second compound 1 µM, first compound 3 µM): 8.32%
- viability, T/C (second compound 3.16 µM, first compound 0.00949 µM): 97.1%
- viability, T/C (second compound 3.16 µM, first compound 0.03 µM): 121%
- viability, T/C (second compound 3.16 µM, first compound 0.0949 µM): 54.1%
- viability, T/C (second compound 3.16 µM, first compound 0.3 µM): 43.9%
- viability, T/C (second compound 3.16 µM, first compound 0.949 µM): 17.7%
- viability, T/C (second compound 3.16 µM, first compound 3 µM): 6.66%
- viability, T/C (second compound 10 µM, first compound 0.00949 µM): 95.2%
- viability, T/C (second compound 10 µM, first compound 0.03 µM): 96.4%
- viability, T/C (second compound 10 µM, first compound 0.0949 µM): 64.2%
- viability, T/C (second compound 10 µM, first compound 0.3 µM): 44%
- viability, T/C (second compound 10 µM, first compound 0.949 µM): 18.4%
- viability, T/C (second compound 10 µM, first compound 3 µM): 9.22%
